Eleven compounds from patent publication US9650390B2, “Water-soluble taxane derivatives and uses thereof” (priority 2014, dated 2017) can be followed below.

Read-outs that look alike come from different tables or passages of the source.

Data set [1] is described as follows: In vitro dissociation in blood plasma of rat. In kind it is in vitro ADME, SD rats. The settings on record: fresh SD rat plasma, 37° C.; for Sampling time/Dissociation percent (%) 2 min: 2 min incubation; for Sampling time/Dissociation percent (%) 5 min: 5 min incubation; for Sampling time/Dissociation percent (%) 10 min: 10 min incubation. The protocol: The obtained water soluble taxane derivatives of the following formulae were formulated as 0.2 mg/ml aqueous solutions. […] After 2 min, 5 min and 10 min of incubation, 0.2 ml of solutions were respectively taken from each of the samples, and added to acetonitrile (0.4 ml) cooled to −20° C. for precipitation of protein.

Data set [2] is described as follows: In vitro dissociation in blood plasma of rabbit. In kind it is in vitro ADME, New Zealand white rabbits. The settings on record: fresh New Zealand white rabbit plasma, 37° C. The protocol:
The obtained water soluble taxane derivatives of the following formulae were formulated as 0.2 mg/ml aqueous solutions. […]

A short description of data set [3]: In vivo metabolic test of the water soluble paclitaxel derivatives in rats. To be noted: SD rats, 5 mg/kg intravenous, 5 min after administration, LC-MS.
Procedure: After 5 min of administration, 0.3 ml of venous blood was taken from the retrobulbar venous plexus of the rats, placed in heparinized tubes, and centrifuged at 11.000 rpm for 5 min. Blood plasma was separated, and the concentrations of the compounds in the blood plasma were determined by liquid chromatography-mass spectrometry.
The test system of data set [4] is human prostate cancer PC-3. The data set is described as follows: Inhibitory activity of docetaxel derivatives on subcutaneously xenografted tumor PC-3 in nude mice. Format: in vivo. To be noted: 14 mg/kg, D0 IV.
Source text: Purpose: to evaluate and compare the inhibitory activity of the water soluble docetaxel derivatives and docetaxel on subcutaneously xenografted tumor of human prostate cancer PC-3 in nude mice
Human prostate cancer PC-3 cells were subcutaneously inoculated into nude mice. After the tumor volume reached 100-150 mm^3, the animals were randomly divided into several groups, and administered with the water soluble docetaxel derivatives of the following formula and docetaxel, respectively once on the same day (D0). The tumor volume was measured 2-3 times per week, the animals were weighed and the data were recorded until day 20 (D20) after grouping.
(§1) The tumor volume (V) was calculated according to the equation: V=½×a×b^2, wherein a and b represent the length and the width, respectively.
T/C (%)=(T−T0)/(C−C0)×100, wherein T and C represent the tumor volume at the end of the experiment; and T0 and C0 represent the tumor volume at the beginning of the experiment.
For data set [5] the following is noted: SD rats, 5 mg/kg intravenous, 5 min after administration, LC-MS.
Procedure: After 5 min of administration, 0.3 ml of venous blood was taken from the retrobulbar venous plexus of the rats, placed in heparinized tubes, and centrifuged at 11,000 rpm for 5 min. Plasma was separated, and the concentrations of the compounds in the plasma were determined by liquid chromatography □-mass spectrometry.
The conditions of data set [6]: physiological saline.
In data set [7] the test system is human ovarian cancer SK-OV-3. The settings on record: 16 mg/kg, D0-4 IV.
Source text: Purpose: to evaluate and compare the inhibitory activity of the water soluble paclitaxel derivatives, paclitaxel and Abraxane® on subcutaneously xenografted tumor of human ovarian cancer SK-OV-3 in nude mice.
Human ovarian cancer SK-OV-3 cells were subcutaneously inoculated to nude mice. After the tumor volume reached 100-150 mm^3, the animals were randomly divided into groups (D0), and administered with the water soluble paclitaxel derivatives of the following formula, paclitaxel, and Abraxane®, respectively once per day for 5 days. The tumor volume was measured 2-3 times per week, the animals were weighed and the data were recorded until day 22 (D22) after grouping.
as §1
T/C (%)=(T−T0)/(C−C0)×100, wherein T and C represent the tumor volume at the end of the experiment, and T0 and C0 represent the tumor volume at the beginning of the experiment.
Setting [8] is: D20, PC-3 xenograft in nude mice.
[9] abbreviates: D22, SK-OV-3 xenograft in nude mice.

With `CC(=O)O[C@H]1C(=O)[C@@]2(C)[C@H]([C@H](OC(=O)c3ccccc3)[C@]3(O)C[C@H](OC(=O)[C@H](OC(=O)[C@H](F)CCN(C)C)[C@@H](NC(=O)c4ccccc4)c4ccccc4)C(C)=C1C3(C)C)[C@]1(OC(C)=O)CO[C@@H]1C[C@@H]2O.Cl` [Compound 01, 2′-O-[4-N,N-dimethylamino-2(R)-fluorobutyryl]paclitaxel hydrochloride], in data set [1], the “Sampling time/Dissociation percent (%) 2 min” value turned out to be 63.5%, the “Sampling time/Dissociation percent (%) 5 min” value was 96.8% and the “Sampling time/Dissociation percent (%) 10 min” value worked out at 100%. Also, in data set [2], the “Sampling time/Dissociation percent (%) 2 min” value was found to be 76.5%, the “Sampling time/Dissociation percent (%) 5 min” value is given as 98.3% and the “Sampling time/Dissociation percent (%) 10 min” value is 100%. Moreover, the “detection of the administered compound in the blood plasma” value (shortened to “detection of the administered compound”) in data set [3] is “cannot be detected”.
As for `CC(=O)O[C@@]12CO[C@@H]1C[C@H](O)[C@@]1(C)C(=O)[C@H](O)C3=C(C)[C@@H](OC(=O)[C@H](O)[C@@H](NC(=O)OC(C)(C)C)c4ccccc4)C[C@@](O)([C@@H](OC(=O)c4ccccc4)[C@H]21)C3(C)C` [docetaxel, reference compound], the “Weight change (%) D6” value in data set [4] (D6, nude mice) is reported as −12.3%. Also, in data set [4] (setting [8]), the “T/C (%) D20” value is given as −27% and the “Tumor volume (mm^3) (D20)” value came out at 81.4 ± 25.1 mm^3. Further, the “Tumor inhibitory percent (%) D20” value in data set [4] (D20, PC-3 xenograft in nude mice, P = 0.000 vs control) stood at 127%. The “Tumor volume (mm^3) (D0)” value in data set [4] (baseline at grouping (D0), PC-3 xenograft in nude mice) is on record as 111.5 ± 1.3 mm^3. Besides, the “mean concentration of docetaxel in the blood plasma” value (“mean concentration of docetaxel” for short) in data set [5] was 769 ng/mL.
`CC(=O)O[C@@]12CO[C@@H]1C[C@H](O)[C@@]1(C)C(=O)[C@H](O)C3=C(C)[C@@H](OC(=O)[C@H](OC(=O)C(F)CCN(C)C)[C@@H](NC(=O)OC(C)(C)C)c4ccccc4)C[C@@](O)([C@@H](OC(=O)c4ccccc4)[C@H]21)C3(C)C.Cl` (stereo partly drawn) [Compound 06, 2′-O-[4-N,N-dimethylamino-2(R,S)-fluorobutyryl]docetaxel hydrochloride]: in data set [1], the “Sampling time/Dissociation percent (%) 2 min” value was determined as 56.4%, the “Sampling time/Dissociation percent (%) 5 min” value came to 91.1% and the “Sampling time/Dissociation percent (%) 10 min” value amounted to 100%. Further, in data set [2], the “Sampling time/Dissociation percent (%) 2 min” value was 75.6%, the “Sampling time/Dissociation percent (%) 5 min” value is recorded as 98.6% and the “Sampling time/Dissociation percent (%) 10 min” value worked out at 100%. Moreover, in data set [5], the “detection of the administered compound” value is recorded as “cannot be detected” and the “mean concentration of docetaxel” value was 1621 ng/mL.
Take `CCN(C)C(C)C[C@H](C(=O)O[C@@H](C(=O)O[C@H]1C[C@@]2(O)[C@@H](OC(=O)c3ccccc3)[C@@H]3[C@]4(OC(C)=O)CO[C@@H]4C[C@H](O)[C@@]3(C)C(=O)[C@H](O)C(=C1C)C2(C)C)[C@@H](NC(=O)OC(C)(C)C)c1ccccc1)C(C)(F)F.CS(=O)(=O)O` (stereo partly drawn) [Compound C12, 2′-O-[4-N-methyl-N-ethylamino-2(R)-2-difluoroethylvaleryl]docetaxel methanesulfonate]: in data set [1], the “Sampling time/Dissociation percent (%) 2 min” value was 42.8%, the “Sampling time/Dissociation percent (%) 5 min” value was 74.8% and the “Sampling time/Dissociation percent (%) 10 min” value was 88.4%. For the same compound, in data set [2], the “Sampling time/Dissociation percent (%) 2 min” value is on record as 44.6%, the “Sampling time/Dissociation percent (%) 5 min” value was 72.1% and the “Sampling time/Dissociation percent (%) 10 min” value amounted to 89.6%. The Solubility (commonly the dissolved amount per volume that the medium holds) in data set [6] was determined as 11.3 mg/mL.
For `CC(=O)O[C@H]1C(=O)[C@@]2(C)[C@H]([C@H](OC(=O)c3ccccc3)[C@]3(O)C[C@H](OC(=O)[C@H](OC(=O)C(F)CCN(C)C)[C@@H](NC(=O)c4ccccc4)c4ccccc4)C(C)=C1C3(C)C)[C@]1(OC(C)=O)CO[C@@H]1C[C@@H]2O.Cl` (stereo partly drawn) [Compound 03, 2′-O-[4-N,N-dimethylamino-2(R,S)-fluorobutyryl]paclitaxel hydrochloride], in data set [1], the “Sampling time/Dissociation percent (%) 2 min” value amounted to 61.8%, the “Sampling time/Dissociation percent (%) 5 min” value is 93.1% and the “Sampling time/Dissociation percent (%) 10 min” value worked out at 100%. In data set [2], the “Sampling time/Dissociation percent (%) 2 min” value was 75.7%, the “Sampling time/Dissociation percent (%) 5 min” value was determined as 93.5% and the “Sampling time/Dissociation percent (%) 10 min” value turned out to be 100%. Also, in data set [3], the “detection of the administered compound” value is “cannot be detected” and the “mean concentration of paclitaxel in the blood plasma” value (shortened to “mean concentration of paclitaxel”) came out at 1825 ng/mL.
As to `CC(=O)OC12COC1CCC1(C)C3OC(CN(C)C)OC3C3=C(C)C(OC(=O)C(OC(=O)C(F)CC(C)N(C)C)C(NC(=O)OC(C)(C)C)c4ncccc4F)CC(O)(C(OC(=O)c4ccccc4)C12)C3(C)C.CS(=O)(=O)O` [Compound 17, 2′-O-[4-N,N-dimethylamino-2(R)-fluorovaleryl]tesetaxel methanesulfonate], in data set [1], the “Sampling time/Dissociation percent (%) 2 min” value stood at 59.3%, the “Sampling time/Dissociation percent (%) 5 min” value amounted to 93.5% and the “Sampling time/Dissociation percent (%) 10 min” value stood at 100%. In data set [2], the “Sampling time/Dissociation percent (%) 2 min” value turned out to be 62.7%, the “Sampling time/Dissociation percent (%) 5 min” value amounted to 93.4% and the “Sampling time/Dissociation percent (%) 10 min” value worked out at 100%. Further, the “Solubility” value in data set [6] worked out at 12.3 mg/mL.
On to `CC(=O)O[C@H]1C(=O)[C@]23C[C@H]2C[C@H]2OC[C@@]2(OC(C)=O)[C@H]3[C@H](OC(=O)c2ccccc2)[C@]2(O)C[C@H](OC(=O)[C@H](OC(=O)[C@H](F)CC(C)N(C)C)[C@@H](NC(=O)OC(C)(C)C)c3ccccc3)C(C)=C1C2(C)C.Cl` (stereo partly drawn) [Compound C16, 2′-O-[4-N,N-dimethylamino-2(R)-fluorovaleryl]larotaxel hydrochloride], for which, in data set [1], the “Sampling time/Dissociation percent (%) 2 min” value was 61.1%, the “Sampling time/Dissociation percent (%) 5 min” value was 93.8% and the “Sampling time/Dissociation percent (%) 10 min” value is 100%. In addition, in data set [2], the “Sampling time/Dissociation percent (%) 2 min” value worked out at 68.2%, the “Sampling time/Dissociation percent (%) 5 min” value is recorded as 94.4% and the “Sampling time/Dissociation percent (%) 10 min” value is listed as 100%. Also, the “Solubility” value in data set [6] came to 0.8 mg/mL.
Turning to `CC(=O)O[C@@]12CO[C@@H]1C[C@H](O)[C@@]1(C)C(=O)[C@H](O)C3=C(C)[C@@H](OC(=O)[C@H](OC(=O)[C@@H](F)CCN(C)C)[C@@H](NC(=O)OC(C)(C)C)c4ccccc4)C[C@@](O)([C@@H](OC(=O)c4ccccc4)[C@H]21)C3(C)C.Cl` [Compound 05, 2′-O-[4-N,N-dimethylamino-2(S)-fluorobutyryl]docetaxel hydrochloride], in data set [1], the “Sampling time/Dissociation percent (%) 2 min” value is 56.4%, the “Sampling time/Dissociation percent (%) 5 min” value was 91.1% and the “Sampling time/Dissociation percent (%) 10 min” value is 100%. In addition, in data set [2], the “Sampling time/Dissociation percent (%) 2 min” value was found to be 79.3%, the “Sampling time/Dissociation percent (%) 5 min” value turned out to be 91.8% and the “Sampling time/Dissociation percent (%) 10 min” value was found to be 100%. Moreover, in data set [5], the “detection of the administered compound” value is recorded as “cannot be detected” and the “mean concentration of docetaxel” value came to 1387 ng/mL.
Regarding `CC(=O)O[C@H]1C(=O)[C@@]2(C)[C@H]([C@H](OC(=O)c3ccccc3)[C@]3(O)C[C@H](OC(=O)[C@H](OC(=O)[C@@H](F)CCN(C)C)[C@@H](NC(=O)c4ccccc4)c4ccccc4)C(C)=C1C3(C)C)[C@]1(OC(C)=O)CO[C@@H]1C[C@@H]2O.Cl` [Compound 02, 2′-O-[4-N,N-dimethylamino-2(S)-fluorobutyryl]paclitaxel hydrochloride], in data set [1], the “Sampling time/Dissociation percent (%) 2 min” value was 59.8%, the “Sampling time/Dissociation percent (%) 5 min” value is reported as 95.6% and the “Sampling time/Dissociation percent (%) 10 min” value was 100%. Moreover, in data set [2], the “Sampling time/Dissociation percent (%) 2 min” value is reported as 68.2%, the “Sampling time/Dissociation percent (%) 5 min” value was 97.5% and the “Sampling time/Dissociation percent (%) 10 min” value is recorded as 100%. Moreover, in data set [3], the “detection of the administered compound” value was “cannot be detected” and the “mean concentration of paclitaxel” value is 1637 ng/mL.
With `CC(=O)O[C@H]1C(=O)[C@@]2(C)[C@H]([C@H](OC(=O)c3ccccc3)[C@]3(O)C[C@H](OC(=O)[C@H](O)[C@@H](NC(=O)c4ccccc4)c4ccccc4)C(C)=C1C3(C)C)[C@]1(OC(C)=O)CO[C@@H]1C[C@@H]2O` [paclitaxel, reference compound], the “Body weight change (%) D4” value in data set [7] (D4, nude mice) is reported as −4.8%. Also, in data set [7] (setting [9]), the “T/C (%) D22” value is −60% and the “Tumor volume (mm^3) (D22)” value is 53.7 ± 11.2 mm^3. Also, in data set [7] (D22, SK-OV-3 xenograft in nude mice, P = 0.000 vs control), the “Tumor inhibitory percent (%) D22” value is given as 160%. Moreover, the “Tumor volume (mm^3) (D0)” value in data set [7] (baseline at grouping (D0), SK-OV-3 xenograft in nude mice) is recorded as 134.6 ± 19.7 mm^3. Also, the “mean concentration of paclitaxel” value in data set [3] amounted to 1793 ng/mL.
For `CC(=O)OC12COC1CC(O)C1(C)C(=O)C(O)C3=C(C)C(OC(=O)C(OC(=O)C(F)CCN(C)C)C(NC(=O)OC(C)(C)C)c4ccccc4)CC(O)(C(OC(=O)c4ccccc4)C21)C3(C)C.Cl` [Compound 04, 2′-O-[4-N,N-dimethylamino-2(R)-fluorobutyryl]docetaxel hydrochloride], in data set [1], the “Sampling time/Dissociation percent (%) 2 min” value is listed as 58.6%, the “Sampling time/Dissociation percent (%) 5 min” value is 92.6% and the “Sampling time/Dissociation percent (%) 10 min” value is on record as 100%. Also, in data set [2], the “Sampling time/Dissociation percent (%) 2 min” value stood at 80.2%, the “Sampling time/Dissociation percent (%) 5 min” value was 93.5% and the “Sampling time/Dissociation percent (%) 10 min” value turned out to be 100%. In addition, in data set [5], the “detection of the administered compound” value was “cannot be detected” and the “mean concentration of docetaxel” value turned out to be 1506 ng/mL.
